Measured values taken from patent publication US7001905B2, “Substituted diarylamines as MEK inhibitors” (Warner-Lambert Company, priority 2000, dated 2006).

molecular target: T1, MEK (Homo sapiens, UniProt Q02750); assay: in vitro MEK assay; assay type: biochemical; details: not given
T1 construct: no tag is given for the 2D mutant
Procedure: For evaluation of direct MEK activity, 10 μg GST-MEK, is incubated in the presence of absence of test compound with 5 μg of a glutathione S-transferase fusion protein containing p44MAP kinase with a lysine to alanine mutation at position 71 (GST-MAPK-KA). This mutation eliminates kinase activity of MAPK, so only kinase activity attributed to the added MEK remains. Incubations are 15 minutes at 30° C. in a final volume of 50 μL containing 50 mM Tris (pH 7.5), […], 2, μM EGTA, and 10 μM [γ-^32P]ATP. The reaction is stopped by addition of Laemmli SDS sample buffer. Phosphorylated GST-MAPK-KA is resolved by electrophoresis on a 10% polyacrylamide gel. Radioactivity incorporated into GST-MAPK-KA is determined by autoradiography, and subsequent scintillation counting of excised bands.
Alternatively, an artificially activated MEK containing serine to glutamate mutations at positions 218 and 222 (GST-MEK-2E) is used. When these two sites are phosphorylated, MEK activity is increased. Phosphorylation of these sites can be mimicked by mutation of the serine residues to glutamate. For this assay, 5 μg GST-MEK-2E is incubated with 5 μg GST-MAPK-KA for 15 minutes at 30° C. in the same reaction buffer as described above. Reactions are terminated and analyzed as above.

T1 sequence (Q02750 whole entry S218D/S222D, form open): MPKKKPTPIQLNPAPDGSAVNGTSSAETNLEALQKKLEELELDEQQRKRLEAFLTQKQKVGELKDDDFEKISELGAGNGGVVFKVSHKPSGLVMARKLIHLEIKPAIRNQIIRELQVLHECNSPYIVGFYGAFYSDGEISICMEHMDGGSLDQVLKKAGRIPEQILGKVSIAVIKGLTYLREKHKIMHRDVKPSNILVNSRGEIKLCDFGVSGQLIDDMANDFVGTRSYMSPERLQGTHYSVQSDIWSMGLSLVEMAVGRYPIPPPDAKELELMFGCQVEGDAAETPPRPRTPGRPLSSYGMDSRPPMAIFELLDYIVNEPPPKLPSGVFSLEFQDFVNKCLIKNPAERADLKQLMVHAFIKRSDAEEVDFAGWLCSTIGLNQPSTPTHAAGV

Structure (SMILES) | IC50 [nM]
Cc1cc(I)ccc1Nc1c(C(=O)O)cc(C(=O)NCCOCCO)c(F)c1F [Example 65, 4,5-Difluoro-N-[2-(2-hydroxy-ethoxy)-ethyl]-6-(4-iodo-2-methyl-phenylamino)-isophthalamic acid] | 1380

same assay, conditions: @ 1 μM

Structure (SMILES) | in vitro MEK assay: % inhibition @ 1 μM [%]
CSc1nc(NC(=O)c2cc3c(c(F)c2F)N(c2ccc(I)cc2C)COC3=O)n[nH]1 [Example 35, 7,8-Difluoro-1-(4-iodo-2-methyl-phenyl)-4-oxo-1,4-dihydro-2H-3,1-benzoxazine-6-carboxylic acid (5-methylsulfanyl-1H-1,2,4-triazol-3-yl)-amide] | 76
Cc1cc(I)ccc1N1COC(=O)c2cc(C(=O)Nc3cc[nH]n3)c(F)c(F)c21 [Example 36, 7,8-Difluoro-1-(4-iodo-2-methyl-phenyl)-4-oxo-1,4-dihydro-2H-3,1-benzoxazine-6-carboxylic acid (1H-pyrazol-3-yl)-amide] | 60
Cc1cc(I)ccc1N1COC(=O)c2cc(C(=O)Nc3cccnc3)c(F)c(F)c21 [Example 37, 7,8-Difluoro-1-(4-iodo-2-methyl-phenyl)-4-oxo-1,4-dihydro-2H-3,1-benzoxazine-6-carboxylic acid pyridin-3-ylamide] | 20
Cc1cc(I)ccc1N1COC(=O)c2cc(C(=O)N3CCCC(O)C3)c(F)c(F)c21 (stereo not drawn) [Example 38, 7,8-Difluoro-6-(3-hydroxy-piperidine-1-carbonyl)-1-(4-iodo-2-methyl-phenyl)-1,2-dihydro-3,1-benzoxazin-4-one] | 48
Cc1cc(I)ccc1N1COC(=O)c2cc(C(=O)N3CCCC(CO)C3)c(F)c(F)c21 (stereo not drawn) [Example 39, 7,8-Difluoro-6-(3-hydroxymethyl-piperidine-1-carbonyl)-1-(4-iodo-2-methyl-phenyl)-1,2-dihydro-3,1-benzoxazin-4-one] | 71
Cc1cc(I)ccc1N1COC(=O)c2cc(C(=O)N3CCC(O)C3)c(F)c(F)c21 (stereo not drawn) [Example 40, 7,8-Difluoro-6-(3-hydroxy-pyrrolidine-1-carbonyl)-1-(4-iodo-2-methyl-phenyl)-1,2-dihydro-3,1-benzoxazin-4-one] | 42
Cc1cc(I)ccc1N1COC(=O)c2cc(C(=O)N3CCC(N4CCCC4)CC3)c(F)c(F)c21 [Example 41] | 7
Cc1cc(I)ccc1N1COC(=O)c2cc(C(=O)NCCN3CCOCC3)c(F)c(F)c21 [Example 42, 7,8-Difluoro-1-(4-iodo-2-methyl-phenyl)-4-oxo-1,4-dihydro-2H-3,1-benzoxazine-6-carboxylic acid (2-morpholin-4yl-ethyl)-amide] | 15
Cc1cc(I)ccc1N1COC(=O)c2cc(C(=O)N3CCC(O)CC3)c(F)c(F)c21 [Example 43, 7,8-Difluoro-6-(4-hydroxy-piperidine-1-carbonyl)1-(4-iodo-2-methyl-phenyl)-1,2-dihydro-3,1-benzoxazin-4-one] | 52
Cc1cc(I)ccc1N1COC(=O)c2cc(C(=O)N3CCC(CCO)CC3)c(F)c(F)c21 [Example 44, 7,8-Difluoro-6-[4-(2-hydroxy-ethyl)-piperidine-1-carbonyl]-1-(4-iodo-2-methyl-phenyl)-1,2-dihydro-3,1-benzoxazin-4-one] | 69
Cc1cc(I)ccc1N1COC(=O)c2cc(C(=O)Nc3ccc(Cl)nc3)c(F)c(F)c21 [Example 45] | 62
COc1ccc(NC(=O)c2cc3c(c(F)c2F)N(c2ccc(I)cc2C)COC3=O)cn1 [Example 46, 7,8-Difluoro-1-(4-iodo-2-methyl-phenyl)-4-oxo-1,4-dihydro-2H-3,1-benzoxazine-6-carboxylic acid (6-methoxy-pyridin-3-yl)amide] | 43
COc1ccc2[nH]cc(CCNC(=O)c3cc4c(c(F)c3F)N(c3ccc(I)cc3C)COC4=O)c2c1 [Example 47, 7,8-Difluoro-1-(4-iodo-2-methyl-2-phenyl)-4-oxo-1,4-dihydro-2H-3,1-benzoxazine-6-carboxylic acid [2-(5-methoxy-1H-indol-3-yl)ethyl]-amide] | 0
COc1ccc2c(CCNC(=O)c3cc4c(c(F)c3F)N(c3ccc(I)cc3C)COC4=O)c[nH]c2c1 [Example 48, 7,8-Difluoro-1-(4-iodo-2-methyl-phenyl)-4-oxo-1,4-dihydro-2H-3,1-benzoxazine-6-carboxylic acid [2-(6-methoxy-1H-indol-3-yl)-ethyl]-amide] | 12
Cc1cc(I)ccc1N1COC(=O)c2cc(C(=O)N(CCO)CCO)c(F)c(F)c21 [Example 49, 7,8-Difluoro-1-(4-iodo-2-methyl-phenyl)-4-oxo-1,4-dihydro-2H-3,1-benzoxazine-6-carboxylic acid bis-(2-hydroxy-ethyl)-amide] | 50
Cc1cc(I)ccc1N1COC(=O)c2cc(C(=O)NCCc3c[nH]cn3)c(F)c(F)c21 [Example 50, 7,8-Difluoro-1-(4-iodo-2-methyl-phenyl)4-oxo-1,4-dihydro-2H-3,1-benzoxazine-6-carboxylic acid [2-(1H-imidazol4-yl)-ethyl]-amide] | 44
Cc1cc(I)ccc1N1COC(=O)c2cc(C(=O)N3CCOCC3)c(F)c(F)c21 [Example 51, 7,8-Difluoro-1-(4-iodo-2-methyl-phenyl)-6-(morpholine-4-carbonyl)-1,2-dihydro-3,1-benzoxazin-4-one] | 72
Cc1cc(I)ccc1N1COC(=O)c2cc(C(=O)NCCCn3ccnc3)c(F)c(F)c21 [Example 52, 7,8-Difluoro-1-(4-iodo-2-methyl-phenyl)-4-oxo-1,4-dihydro-2H-3,1-benzoxazine-6-carboxylic acid (3-imidazol-1-yl-propyl)amide] | 35
Cc1cc(I)ccc1N1COC(=O)c2cc(C(=O)Nc3ccc(N(C)C)cc3)c(F)c(F)c21 [Example 53, 7,8-Difluoro-1-(4-iodo-2-methyl-phenyl)-4-oxo-1,4-dihydro-2H-3,1-benzoxazine-6-carboxylic acid (4-dimethylamino-phenyl)amide] | 61
CCN1CCN(C(=O)c2cc3c(c(F)c2F)N(c2ccc(I)cc2C)COC3=O)CC1 [Example 54, 6-(4-Ethyl-piperazine-1-carbonyl)-7,8-difluoro-1-(4-iodo-2-methyl-phenyl)-1,2-dihydro-3,1-benzoxazin-4-one] | 56
Cc1cc(I)ccc1N1COC(=O)c2cc(C(=O)N(C)CCc3c[nH]c4ccccc34)c(F)c(F)c21 [Example 55, 7,8-Difluoro-1-(4-iodo-2-methyl-phenyl)-4-oxo-1,4-dihydro-2H-3,1-benzoxazine-6-carboxylic acid [2-(1H-indol-3-yl)ethyl]-methyl-amide] | 41
Cc1cc(I)ccc1N1COC(=O)c2cc(C(=O)N3CCNCC3)c(F)c(F)c21 [Example 56, 7,8-Difluoro-1-(4-iodo-2-methyl-phenyl)-6-(piperazine-1-carbonyl)-1,2-dihydro-3,1-benzoxazin-4-one] | 1
Cc1cc(I)ccc1N1COC(=O)c2cc(C(=O)NCC3CCCO3)c(F)c(F)c21 (stereo not drawn) [Example 57, 7,8-Difluoro-1-(4-iodo-2-methyl-phenyl)4-oxo-1,4-dihydro-2H-3,1-benzoxazine-6-carboxylic acid (tetrahydro-furan-2-ylmethyl)-amide] | 35
Cc1cc(I)ccc1N1COC(=O)c2cc(C(=O)N3CCSC3)c(F)c(F)c21 [Example 58, 7,8-Difluoro-1-(4-iodo-2-methyl-phenyl)-6-(thiazolidine-3-carbonyl)-1,2-dihydro-3,1-benzoxzin-4-one] | 76
Cc1cc(I)ccc1N1COC(=O)c2cc(C(=O)N3CCSCC3)c(F)c(F)c21 [Example 59, 7,8-Difluoro-1-(4-iodo-2-methyl-phenyl)-6-(thiomorpholine-4-carbonyl)-1,2-dihydro-3,1-benzoxzin-4-one] | 75
Cc1cc(I)ccc1Nc1c(C(=O)O)cc(C(=O)N2CC[C@@H](O)C2)c(F)c1F [Example 61, 3,4-Difluoro-5-[1-((R)-3-hydroxy-pyrrolidin-1-yl)-methanoyl]-2-(4-iodo-2-methyl-phenylamino)-benzoic acid] | 75
Cc1cc(I)ccc1Nc1c(C(=O)O)cc(C(=O)NCCCN2CCCC2=O)c(F)c1F [Example 62, 4,5-Difluoro-6-(4-iodo-2-methyl-phenylamino)-N-[3-(2-oxo-pyrrolidin-1-yl)-propyl]-isophthalamic acid] | 78
Cc1cc(I)ccc1Nc1c(C(=O)O)cc(C(=O)N2CCN(C)CC2)c(F)c1F [Example 64, 3,4-Difluoro-2-(4-iodo-2-methyl-phenylamino)-5-[1-(4-methyl-piperazin-1-yl)-methanoyl]-benzoic acid] | 57
Cc1cc(I)ccc1Nc1c(C(=O)O)cc(C(=O)NCCOCCO)c(F)c1F [Example 65, 4,5-Difluoro-N-[2-(2-hydroxy-ethoxy)-ethyl]-6-(4-iodo-2-methyl-phenylamino)-isophthalamic acid] | 63
